Experiments:
[1] = CDX model: body and organ weight, CBC and blood biochemistry; format: in vivo; conditions: NSG mice
Protocol: The procedures for the establishment of breast cancer-bearing xenograft models were modified from a previous publication and approved by the Taipei Medical University (TMU) Institutional Animal Care and Use Committee (IACUC No. LAC-2020-0175). Overall, 4- to 6-week-old NOD.Cg-PrkdcscidIl2rgtm1Wjl/SzJ (NSG) female mice purchased from National Laboratory Animal Center (Taipei, Taiwan) were housed in specific pathogen-free rooms with ad libitum feeding and 12 h light–dark cycle. After a week of acclimatization, 2 × 10^6 MDA-MB-231 cells suspended in 1:1 ratio of phosphate-buffered saline plus Matrigel® Matrix (Cat. 356237; Corning Inc., New York, NY, USA) were subcutaneously injected on the right flank of each mouse. […] To monitor tumor growth in the models, tumor diameter was measured using an electronic caliper and values were applied on the equation: width^2 × length × 0.52 to estimate their tumor volume. All mice were sacrificed on day 28 after treatment. Plasma, tumors and major organs (heart, liver, kidney, spleen and lung) were collected for toxicity assessment and metastasis evaluation. Whole blood harvested from sacrificed animals was collected in EDTA-containing or heparin-containing tubes for CBC and biochemical analysis. For biochemical analysis, whole blood was centrifuged under 2000× g for 5 min to separate plasma from blood cells and then plasma was kept and stored in a −20 °C fridge until further analysis. Concentrations of albumin, total protein, aspartate aminotransferase (AST), alanine aminotransferase (ALT) and creatinine (CREA) in plasma, numbers of red blood cells (RBC), platelets (PLT), white blood cells (WBC) and hemoglobin (HGB) concentration in EDTA-anticoagulated whole blood were determined by medical laboratory scientists in Taipei Medical University Hospital (Taipei, Taiwan).

STAT3-DN plasmid = test: Gel-based electrophoretic mobility shift assay; format: binding; conditions: 24 h, 37 °C
Protocol: Plasmid DNA interacting with platinum-containing compounds was studied using agarose gel electrophoresis to separate DNA fragments dependent on sizes and structures. In total, […] of STAT3-DN plasmid (BIOTOOLS Co., New Taipei City, Taiwan) around 4.8 kb provided by Dr. Chien-Huang Lin was incubated with an equal volume of increasing concentrations of compounds (5~40 µM) at 37 °C for 24 h.

[2] = PDX model: body and organ weight, CBC and blood biochemistry; format: in vivo; conditions: NSG mice
Text: The procedures for the establishment of breast cancer-bearing xenograft models were modified from previous publications and approved by the Taipei Medical University (TMU) Institutional Animal Care and Use Committee (IACUC No. LAC- 2021-0546) and the Joint Institutional Review Board of Taipei Medical University (N201812005). Overall, 4- to 6-week-old NOD.Cg-PrkdcscidIl2rgtm1Wjl/SzJ (NSG) female mice purchased from BioLASCO Taiwan Co., Ltd. (Taipei, Taiwan) were housed in specific pathogen-free rooms with ad libitum feeding and 12 h light–dark cycle. Patient-derived TNBC tumors were microscopically considered for a hypervascular background and frequent mitosis features, and triple-negative results for estrogen receptor, progesterone receptor and human epidermal growth factor receptor 2 (HER2). After a week of acclimatization, patient-derived TNBC tumors dissected into 3 × 3 × 3 mm^3 were implanted using puncture needle in fat pads between the third and fourth mammary glands for each mouse. […] Tumor growth curves were generated by measuring tumor diameters and then calculating based on the same equation described above. Finally, the mice were sacrificed on day 23 after the first dose of treatments. Plasma, tumors and major organs (heart, liver, kidney, spleen and lung) were collected for toxicity assessment and metastasis evaluation. Whole blood harvested from sacrificed animals was collected in EDTA-containing or heparin-containing tubes for CBC and biochemical analysis. For biochemical analysis, whole blood was centrifuged under 2000× g for 5 min to separate plasma from blood cells and then plasma was kept and stored in a −20 °C fridge until further analysis. Concentrations of albumin, total protein, aspartate aminotransferase (AST), alanine aminotransferase (ALT) and creatinine (CREA) in plasma, numbers of red blood cells (RBC), platelets (PLT), white blood cells (WBC) and hemoglobin (HGB) concentration in EDTA-anticoagulated whole blood were determined by medical laboratory scientists in Taipei Medical University Hospital (Taipei, Taiwan).

[3] = tested on: P53, Ki-67, cleaved caspase 3, PD-L1; test: Immunohistochemistry of CDX tumors; format: in vivo, mice; conditions: 5 mg/kg
Text: Formalin-fixed and paraffin-embedded 4 μm sections of tumor and organs from cell-bearing xenograft models were stained in hematoxylin and eosin to provide an overall morphology of tissues. Tumor sections were dewaxed with UltraClear™ (J.T.Baker, Phillipsburg, NJ, USA), rehydrated in a descending series of alcohol and water and had antigens unmasked in pH 6 or pH 9 Epitope Retrieval Solution (Leica Biosystems Inc., Wetzlar, Germany) in a microwave pressure cooker. […] VisUCyte HRP Polymer Antibody against rabbit IgG (VC003-025; R&D Systems, Minneapolis, MN, USA) and mouse IgG (VC001-025; R&D Systems, Minneapolis, MN, USA) were targeted to primary antibodies. Liquid DAB+ system from Agilent Technologies (Santa Clara, CA, USA) was applied as a chromogen for visualizing. Slides were mounted after hematoxylin counterstaining. All images were scanned using Motic EasyScan Pro 6 pathology slide scanner (Motic China Group Co., Ltd., Hong Kong, China).

[4] = 5 mg/kg i.p. weekly x4, day 28, reference interval 0.2–0.5
[5] = 5 mg/kg i.p. weekly x4, day 28, reference interval 4–10.9
[6] = 5 mg/kg i.p. weekly x4, day 28, reference interval 7.75–9.61
[7] = 5 mg/kg i.p. weekly x4, day 28, reference interval 13–39
[8] = 5 mg/kg i.p. weekly x4, day 28, reference interval 63–227
[9] = 5 mg/kg i.p. weekly x4, day 28, reference interval 853–1951
[10] = 5 mg/kg i.p. weekly x4, day of sacrifice (day 28)
[11] = 5 mg/kg i.v. weekly x4, day 23, reference interval 0.2–0.5
[12] = 5 mg/kg i.v. weekly x4, day 23, reference interval 13–39
[13] = 5 mg/kg i.v. weekly x4, day 23, reference interval 63–227
[14] = 5 mg/kg i.v. weekly x4, day 23, reference interval 853–1951
[15] = 5 mg/kg i.v. weekly x4, day of sacrifice (day 23)
[16] = 2.11 mg/kg i.p. weekly x4, day 28
[17] = 2.11 mg/kg i.v. weekly x4, day 23

FC(F)C(F)(F)COCc1ccnc(-c2cc(COCC(F)(F)C(F)F)ccn2)c1.[Cl][Pt][Cl] [TFBPC]
Heart ([1]; 5 mg/kg i.p. weekly x4, day 28): 0.14 ± 0.04 g | Kidney ([1]; 5 mg/kg i.p. weekly x4, day 28): 0.31 ± 0.02 g | Liver ([1]; 5 mg/kg i.p. weekly x4, day 28): 1.04 ± 0.08 g | Lung ([1]; 5 mg/kg i.p. weekly x4, day 28): 0.23 ± 0.04 g | Spleen ([1]; 5 mg/kg i.p. weekly x4, day 28): 0.03 ± 0.00 g | CREA [1, 4]: 0.20 ± 0.00 mg/dL | Albumin ([1]; 5 mg/kg i.p. weekly x4, day 28, reference interval 3.0–3.9): 3.20 ± 0.29 g/dL | WBC [1, 5]: 5.70 ± 1.54 10^3/µL | Total protein ([1]; 5 mg/kg i.p. weekly x4, day 28, reference interval 4.5–5.5): 4.98 ± 0.17 g/dL | RBC [1, 6]: 9.85 ± 0.30 10^6/µL | HGB ([1]; 5 mg/kg i.p. weekly x4, day 28, reference interval 12.20–13.90): 14.9 ± 0.53 g/dL | ALT [1, 7]: 38.75 ± 7.09 U/L | AST [1, 8]: 190.0 ± 65.17 U/L | PLT [1, 9]: 975 ± 205.8 10^3/µL | Body weight [1, 10]: 23.62 ± 1.56 g | breakage of plasmid DNA (nicked or linear forms) (STAT3-DN plasmid): induced single or double breakages of plasmid DNA | Kidney ([2]; 5 mg/kg i.v. weekly x4, day 23): 0.36 ± 0.02 g | Liver ([2]; 5 mg/kg i.v. weekly x4, day 23): 1.58 ± 0.11 g | Lung ([2]; 5 mg/kg i.v. weekly x4, day 23): 0.24 ± 0.02 g | Spleen ([2]; 5 mg/kg i.v. weekly x4, day 23): 0.30 ± 0.05 g | CREA [2, 11]: 0.10 ± 0.12 mg/dL | Albumin ([2]; 5 mg/kg i.v. weekly x4, day 23, reference interval 3.0–3.9): 2.93 ± 0.40 g/dL | Total protein ([2]; 5 mg/kg i.v. weekly x4, day 23, reference interval 4.5–5.5): 4.6 ± 0.32 g/dL | RBC ([2]; 5 mg/kg i.v. weekly x4, day 23, reference interval 7.75–9.61): 6.97 ± 0.58 10^6/µL | HGB ([2]; 5 mg/kg i.v. weekly x4, day 23, reference interval 12.20–13.90): 11.8 ± 0.56 g/dL | ALT [2, 12]: 14.75 ± 4.50 U/L | AST [2, 13]: 131.75 ± 31.70 U/L | PLT [2, 14]: 872.75 ± 81.04 10^3/µL | Body weight [2, 15]: 25.72 ± 1.22 g | expression of P53, Ki-67 and PD-L1 in tumors (IHC) [3]: lowest level in expressions of P53, Ki-67 and PD-L1 | expression of cleaved caspase 3 in tumors (IHC) [3]: highest expression of cleaved caspase 3

N.N.[Cl][Pt][Cl] [CDDP, Cis-diamineplatinum(II) dichloride]
Heart [1, 16]: 0.14 ± 0.04 g | Kidney [1, 16]: 0.31 ± 0.02 g | Liver [1, 16]: 1.04 ± 0.08 g | Lung [1, 16]: 0.23 ± 0.04 g | Spleen [1, 16]: 0.03 ± 0.00 g | CREA ([1]; 2.11 mg/kg i.p. weekly x4, day 28, reference interval 0.2–0.5): 0.20 ± 0.00 mg/dL | WBC ([1]; 2.11 mg/kg i.p. weekly x4, day 28, reference interval 4–10.9): 3.48 ± 0.13 ^§ 10^3/µL | RBC ([1]; 2.11 mg/kg i.p. weekly x4, day 28, reference interval 7.75–9.61): 9.25 ± 0.33 10^6/µL | ALT ([1]; 2.11 mg/kg i.p. weekly x4, day 28, reference interval 13–39): 34.25 ± 9.18 U/L | AST ([1]; 2.11 mg/kg i.p. weekly x4, day 28, reference interval 63–227): 120.3 ± 20.82 U/L | PLT ([1]; 2.11 mg/kg i.p. weekly x4, day 28, reference interval 853–1951): 867.3 ± 97.6 10^3/µL | Body weight ([1]; 2.11 mg/kg i.p. weekly x4, day of sacrifice (day 28)): 24.08 ± 2.89 g | Heart ([1]; 5 mg/kg i.p. weekly x4, day 28): 0.13 ± 0.01 g | Kidney ([1]; 5 mg/kg i.p. weekly x4, day 28): 0.29 ± 0.02 g | Liver ([1]; 5 mg/kg i.p. weekly x4, day 28): 0.98 ± 0.10 g | Lung ([1]; 5 mg/kg i.p. weekly x4, day 28): 0.26 ± 0.13 g | Spleen ([1]; 5 mg/kg i.p. weekly x4, day 28): 0.13 ± 0.18 g | CREA [1, 4]: 0.23 ± 0.05 mg/dL | WBC [1, 5]: 6.33 ± 1.59 10^3/µL | RBC [1, 6]: 9.18 ± 0.46 10^6/µL | ALT [1, 7]: 29.00 ± 3.46 U/L | AST [1, 8]: 172.3 ± 44.28 U/L | PLT [1, 9]: 927.80 ± 223.4 10^3/µL | Body weight [1, 10]: 22.20 ± 2.12 g | breakage of plasmid DNA (nicked or linear forms) (STAT3-DN plasmid): induced single or double breakages of plasmid DNA | Kidney [2, 17]: 0.33 ± 0.03 g | Liver [2, 17]: 1.51 ± 0.12 g | Lung [2, 17]: 0.23 ± 0.01 g | Spleen [2, 17]: 0.22 ± 0.07 g | CREA ([2]; 2.11 mg/kg i.v. weekly x4, day 23, reference interval 0.2–0.5): 0.20 ± 0.00 mg/dL | WBC ([2]; 2.11 mg/kg i.v. weekly x4, day 23, reference interval 4–10.9): 6.09 ± 1.32 * 10^3/µL | RBC ([2]; 2.11 mg/kg i.v. weekly x4, day 23, reference interval 7.75–9.61): 7.41 ± 0.51 10^6/µL | ALT ([2]; 2.11 mg/kg i.v. weekly x4, day 23, reference interval 13–39): 14.00 ± 4.90 U/L | AST ([2]; 2.11 mg/kg i.v. weekly x4, day 23, reference interval 63–227): 207.00 ± 101.18 U/L | PLT ([2]; 2.11 mg/kg i.v. weekly x4, day 23, reference interval 853–1951): 946.75 ± 150.28 10^3/µL | Body weight ([2]; 2.11 mg/kg i.v. weekly x4, day of sacrifice (day 23)): 24.06 ± 2.18 g | Heart ([2]; 5 mg/kg i.v. weekly x4, day 23): 0.11 ± 0.02 g | Kidney ([2]; 5 mg/kg i.v. weekly x4, day 23): 0.35 ± 0.04 g | Liver ([2]; 5 mg/kg i.v. weekly x4, day 23): 1.63 ± 0.22 g | Lung ([2]; 5 mg/kg i.v. weekly x4, day 23): 0.23 ± 0.03 g | Spleen ([2]; 5 mg/kg i.v. weekly x4, day 23): 0.17 ± 0.04 g | CREA [2, 11]: 0.15 ± 0.10 mg/dL | ALT [2, 12]: 13.00 ± 3.27 U/L | AST [2, 13]: 137.00 ± 34.79 U/L | PLT [2, 14]: 877.00 ± 170.99 10^3/µL | Body weight [2, 15]: 25.48 ± 0.98 g | expression of P53, Ki-67 and PD-L1 in tumors (IHC) [3]: lower intensity in P53, Ki-67 and PD-L1 | expression of cleaved caspase 3 in tumors (IHC) [3]: higher intensity of cleaved caspase 3
